US20110251379A1, “COMPOUNDS USEFUL FOR TREATING NEURODEGENERATIVE DISORDERS” (Satori Pharmaceuticals, Inc., priority 2010, published 2011)
Where two headings read alike, the source gives them in different places.

Key:
Format in all cases: cell-based
[1] = system: Aβ-40; assay: MSD Human (6E10) Ab 3-PLEX elisa, conditioned media of 2B7 cells: Aβ-40; conditions: for IC50: Aβ-40 (superscript b)
Procedure, shortened: (§1)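 Confluent 2B7 cells were treated with compound serial dilutions (1% DMSO final) for 5 hours at 37° C. Conditioned media, diluted 1:1 in blocking buffer, was incubated with detection antibody overnight at 4 degrees C or 2 hours at room temp.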

[2] = system: Aβ-42; assay: MSD Human (6E10) Ab 3-PLEX elisa, conditioned media of 2B7 cells: Aβ-42; conditions: for IC50: Aβ-42 (superscript c); for inhibition at 20 µM / % Inh. (range): Aβ-42, 20 μM
Procedure, shortened: as §1

[3] = system: Aβ-38; assay: MSD Human (6E10) Ab 3-PLEX elisa, conditioned media of 2B7 cells: Aβ-38; conditions: for IC50: Aβ-38 (superscript a)
Procedure, shortened: as §1

[4] = Homo sapiens, read-out: IC50 range
[5] = Homo sapiens, read-out: 50% reduction value

C[C@@H]1CC(CN2CCC[C@H]2C(=O)O)OC2[C@H]1[C@@]1(C)CC[C@@]34C[C@@]35CC[C@H](O[C@H]3CN(C(=O)CC6CC6)CCO3)C(C)(C)[C@@H]5CCC4[C@]1(C)[C@H]2O (stereo partly shown)
inhibition at 100 µM ([1]; Homo sapiens, Aβ-40, 100 μM): 25 to 75%
IC50 [2, 4]: > 10000 nM
inhibition at 100 µM ([3]; Homo sapiens, Aβ-38, 100 μM): 25 to 75%

CC(=O)NCCC1C[C@@H](C)[C@H]2C(O1)[C@H](O)[C@@]1(C)C3CC[C@H]4C(C)(C)[C@@H](O)CC[C@@]45C[C@@]35CC[C@]21C (stereo partly shown)
inhibition at 20 µM ([1]; Homo sapiens, Aβ-40, 20 μM): < 25%
IC50 [2, 5]: 1000 to 10000 nM
inhibition at 20 µM ([3]; Homo sapiens, Aβ-38, 20 μM): 25 to 75%

COC(=O)OCC1C[C@@H](C)[C@H]2C(O1)[C@H](O)[C@@]1(C)C3CC[C@H]4C(C)(C)[C@@H](O)CC[C@@]45C[C@@]35CC[C@]21C (stereo partly shown)
inhibition at 20 µM ([1]; Homo sapiens, Aβ-40, 20 μM): 25 to 75%
inhibition at 20 µM ([2]; Homo sapiens): 25 to 75%
inhibition at 20 µM ([3]; Homo sapiens, Aβ-38, 20 μM): 25 to 75%

C[C@@H]1CC(COC(=O)C2CCC2)OC2[C@H]1[C@@]1(C)CC[C@@]34C[C@@]35CC[C@H](O[C@H]3CN(C6COC6)CCO3)C(C)(C)[C@@H]5CCC4[C@]1(C)[C@H]2O (stereo partly shown)
inhibition at 20 µM ([1]; Homo sapiens, Aβ-40, 20 μM): < 25%
inhibition at 20 µM ([2]; Homo sapiens): < 25%
inhibition at 20 µM ([3]; Homo sapiens, Aβ-38, 20 μM): 25 to 75%

CC(=O)OC(C)(C)C1C[C@@H](C)[C@H]2C(O1)[C@H](O)[C@@]1(C)C3CC[C@H]4C(C)(C)C(OC(=O)N5CCOCC5)CC[C@@]45C[C@@]35CC[C@]21C (stereo partly shown)
inhibition at 20 µM ([1]; Homo sapiens, Aβ-40, 20 μM): < 25%
inhibition at 20 µM ([2]; Homo sapiens): < 25%
inhibition at 20 µM ([3]; Homo sapiens, Aβ-38, 20 μM): 25 to 75%

C[C@@H]1CC([C@H](Oc2ncccn2)C(C)(C)O)OC2C1[C@@]1(C)CC[C@@]34C[C@@]35CCC(O)C(C)(C)[C@@H]5CCC4[C@]1(C)[C@H]2O (stereo partly shown)
inhibition at 20 µM ([1]; Homo sapiens, Aβ-40, 20 μM): 25 to 75%
inhibition at 20 µM ([2]; Homo sapiens): 25 to 75%
inhibition at 20 µM ([3]; Homo sapiens, Aβ-38, 20 μM): 25 to 75%

C[C@@H]1CC([C@H](Oc2ncccn2)C(C)(C)O)OC2C1[C@@]1(C)CC[C@@]34C[C@@]35CCC(OC(=O)N3CCOCC3)C(C)(C)[C@@H]5CCC4[C@]1(C)[C@H]2O (stereo partly shown)
IC50 [1, 4]: > 10000 nM
IC50 [2, 5]: > 10000 nM
inhibition at 20 µM ([3]; Homo sapiens, Aβ-38, 20 μM): 25 to 75%

COCC1C[C@@H](C)[C@H]2C(O1)[C@H](O)[C@@]1(C)[C@@H]3CC[C@H]4C(C)(C)C(O[C@H]5CN(C6COC6)CCO5)CC[C@@]45C[C@@]35CC[C@]21C (stereo partly shown)
inhibition at 20 µM ([1]; Homo sapiens, Aβ-40, 20 μM): < 25%
inhibition at 20 µM ([2]; Homo sapiens): < 25%
inhibition at 20 µM ([3]; Homo sapiens, Aβ-38, 20 μM): < 25%

C[C@@H]1CC(CN(C)[C@@H](C)C(=O)O)OC2[C@H]1[C@@]1(C)CC[C@@]34C[C@@]35CC[C@H](O[C@H]3CN(C(=O)CC6CC6)CCO3)C(C)(C)[C@@H]5CCC4[C@]1(C)[C@H]2O (stereo partly shown) [drawing 1142]
% Inh. (range) ([1]; Aβ-40, 100 μM, 100 µM): E^a (100 μM) E^b (100 μM) E^c (100 μM) (% inhibition of 25-75%)
inhibition at 100 µM ([2]; Homo sapiens, Aβ-42, 100 μM): 25 to 75%
inhibition at 100 µM ([3]; Homo sapiens, Aβ-38, 100 μM): 25 to 75%

C[C@@H]1CC(CN(C)[C@@H](C)C(=O)O)OC2[C@H]1[C@@]1(C)CC[C@@]34C[C@@]35CC[C@H](O[C@H]3CN(C(=O)CC6CC6)CCO3)C(C)(C)[C@@H]5CCC4[C@]1(C)[C@H]2O (stereo partly shown) [drawing 1155]
inhibition at 100 µM ([1]; Homo sapiens, Aβ-40, 100 μM): 25 to 75%
IC50 [2, 4]: 1000 to 10000 nM
IC50 [3, 4]: < 1000 nM

CC(=O)O[C@@H]([C@H]1C[C@@H](C)C2C(O1)[C@H](O)[C@@]1(C)[C@@H]3CC[C@H]4C(C)(C)[C@@H](O[C@@H]5OC[C@@H](O)[C@H](O)[C@H]5O)CC[C@@]45C[C@@]35CC[C@]21C)C(C)(C)O (stereo partly shown) [drawing 1160]
IC50 [1, 4]: 1000 to 10000 nM
IC50 [2, 5]: < 1000 nM
IC50 [2, 4]: < 1000 nM
IC50 [3, 4]: < 1000 nM

CC(=O)OCC1C[C@@H](C)C2C(O1)[C@H](O)[C@@]1(C)[C@@H]3CC[C@H]4C(C)(C)[C@@H](O)CC[C@@]45C[C@@]35CC[C@]21C (stereo partly shown) [drawing 1161]
inhibition at 20 µM ([1]; Homo sapiens, Aβ-40, 20 μM): 25 to 75%
inhibition at 20 µM ([2]; Homo sapiens): 25 to 75%
inhibition at 20 µM ([3]; Homo sapiens, Aβ-38, 20 μM): 25 to 75%

CCC(=O)O[C@@H]([C@H]1C[C@@H](C)C2C(O1)[C@H](O)[C@@]1(C)[C@@H]3CC[C@H]4C(C)(C)[C@@H](O)CC[C@@]45C[C@@]35CC[C@]21C)C(C)(C)O (stereo partly shown) [drawing 1197]
IC50 [1, 5]: > 10000 nM
IC50 [2, 5]: > 10000 nM
IC50 [3, 5]: > 10000 nM

CC(=O)O[C@@H]([C@H]1C[C@@H](C)C2C(O1)[C@H](O)[C@@]1(C)[C@@H]3CC[C@H]4C(C)(C)[C@@H](OC5CN(CC(N)=O)CCO5)CC[C@@]45C[C@@]35CC[C@]21C)C(C)(C)O (stereo partly shown) [drawing 1198]
inhibition at 20 µM ([1]; Homo sapiens, Aβ-40, 20 μM): 25 to 75%
IC50 [2, 5]: < 1000 nM
IC50 [2, 4]: 1000 to 10000 nM
IC50 [3, 5]: < 1000 nM

CC(=O)O[C@@H]([C@H]1C[C@@H](C)C2C(O1)[C@H](O)[C@@]1(C)[C@@H]3CC[C@H]4C(C)(C)[C@@H](OC5CN(CC(=O)N(C)C)CCO5)CC[C@@]45C[C@@]35CC[C@]21C)C(C)(C)O (stereo partly shown) [drawing 1199]
IC50 [1, 5]: 1000 to 10000 nM
IC50 [2, 5]: < 1000 nM
IC50 [2, 4]: < 1000 nM
IC50 [3, 5]: < 1000 nM
IC50 [3, 4]: < 1000 nM

CC(=O)O[C@@H]([C@H]1C[C@@H](C)C2C(O1)[C@H](O)[C@@]1(C)[C@@H]3CC[C@H]4C(C)(C)[C@@H](OC(=O)c5cccnc5)CC[C@@]45C[C@@]35CC[C@]21C)C(C)(C)O (stereo partly shown) [drawing 1200]
IC50 [1, 5]: > 10000 nM
IC50 [2, 5]: < 1000 nM
IC50 [2, 4]: < 1000 nM
IC50 [3, 5]: < 1000 nM
IC50 [3, 4]: < 1000 nM

CC(=O)O[C@@H]([C@H]1C[C@@H](C)[C@H]2[C@H](O1)[C@H](O)[C@@]1(C)[C@@H]3CC[C@H]4C(C)(C)C(OC(N)=O)CC[C@@]45C[C@@]35CC[C@]21C)C(C)(C)O (stereo partly shown) [drawing 1201]
inhibition at 20 µM ([1]; Homo sapiens, Aβ-40, 20 μM): 25 to 75%
IC50 [2, 5]: < 1000 nM
IC50 [2, 4]: < 1000 nM
IC50 [3, 5]: < 1000 nM
IC50 [3, 4]: < 1000 nM

CC(=O)O[C@@H]([C@H]1C[C@@H](C)[C@H]2[C@H](O1)C(=O)[C@@]1(C)[C@@H]3CC[C@H]4C(C)(C)[C@@H](O[C@H]5CN(CC(N)=O)CCO5)CC[C@@]45C[C@@]35CC[C@]21C)C(C)(C)O [drawing 1202]
IC50 [1, 5]: < 1000 nM
inhibition at 20 µM ([2]; Homo sapiens): 25 to 75%
IC50 [3, 5]: < 1000 nM
IC50 [3, 4]: < 1000 nM

CC1CC(CO)OC2C1C1(C)CCC34CC35CCC(OC3OCC(O)C(O)C3O)C(C)(C)C5CCC4C1(C)C2O (stereo not shown) [drawing 1203]
% Inh. (range) ([1]; Aβ-40, 100 μM): E^a (100 μM) E^b (100 μM) (% inhibition of 25-75%)
IC50 ([2]; read-out: IC50 range): > 10000 nM
% Inh. (range) ([3]; Aβ-38, 100 μM): E^a (100 μM) E^b (100 μM) (% inhibition of 25-75%)

CC(=O)OC(C1CC(C)C2C(O1)C(O)C1(C)C3CCC4C(C)(C)C(OC5CN(S(C)(=O)=O)CCO5)CCC45CC35CCC21C)C(C)(C)O (stereo not shown) [drawing 1204]
% Inh. (range) ([1]; Aβ-40, 100 μM): E^b (100 μM) (% inhibition of 25-75%)
IC50 ([2]; read-out: 50% reduction value): < 1000 nM
IC50 ([2]; read-out: IC50 range): < 1000 nM
IC50 ([3]; read-out: 50% reduction value): < 1000 nM

CC(=O)OC(C1CC(C)C2C(O1)C(O)C1(C)C3CCC4C(C)(C)C(OC(=O)C5CNC5)CCC45CC35CCC21C)C(C)(C)O (stereo not shown) [drawing 1205]
IC50 ([1]; read-out: 50% reduction value): < 1000 nM
IC50 ([1]; read-out: IC50 range): 1000 to 10000 nM
IC50 ([2]; read-out: 50% reduction value): < 1000 nM
IC50 ([2]; read-out: IC50 range): < 1000 nM
IC50 ([3]; read-out: 50% reduction value): < 1000 nM
IC50 ([3]; read-out: IC50 range): < 1000 nM

CC(=O)OCC1CC(C)C2C(O1)C(O)C1(C)C3CCC4C(C)(C)C(OC5OCC(O)C(O)C5O)CCC45CC35CCC21C (stereo not shown) [drawing 1206]
% Inh. (range) ([1]; Aβ-40, 20 μM): E^a (20 μM) E^b (20 μM) E^c (20 μM) (% inhibition of 25-75%)
% Inh. (range) [2]: E^a (20 μM) E^b (20 μM) E^c (20 μM) (% inhibition of 25-75%)
% Inh. (range) ([3]; Aβ-38, 20 μM): E^a (20 μM) E^b (20 μM) E^c (20 μM) (% inhibition of 25-75%)

CC(=O)N(Cc1ccccc1)CC1CC(C)C2C(O1)C(O)C1(C)C3CCC4C(C)(C)C(O)CCC45CC35CCC21C (stereo not shown) [drawing 1207]
IC50 ([1]; read-out: 50% reduction value): 1000 to 10000 nM
IC50 ([2]; read-out: 50% reduction value): 1000 to 10000 nM
IC50 ([2]; read-out: IC50 range): < 1000 nM
IC50 ([3]; read-out: 50% reduction value): 1000 to 10000 nM

CC1CC(C(=O)O)OC2C1C1(C)CCC34CC35CCC(O)C(C)(C)C5CCC4C1(C)C2O (stereo not shown) [drawing 1208]
% Inh. (range) ([1]; Aβ-40, 20 μM): F^a (20 μM) F^b (20 μM) F^c (20 μM) (% inhibition of <25%)
% Inh. (range) [2]: F^a (20 μM) F^b (20 μM) F^c (20 μM) (% inhibition of <25%)
% Inh. (range) ([3]; Aβ-38, 20 μM): F^a (20 μM) F^b (20 μM) F^c (20 μM) (% inhibition of <25%)

CCC(=O)OC(C1CC(C)C2C(O1)C(O)C1(C)C3CCC4C(C)(C)C(OC5CN(C6COC6)CCO5)CCC45CC35CCC21C)C(C)(C)O (stereo not shown) [drawing 1209]
IC50 ([1]; read-out: 50% reduction value): 1000 to 10000 nM
IC50 ([1]; read-out: IC50 range): 1000 to 10000 nM
IC50 ([2]; read-out: 50% reduction value): < 1000 nM
IC50 ([3]; read-out: 50% reduction value): < 1000 nM
IC50 ([3]; read-out: IC50 range): < 1000 nM
